Experimental data taken from US20240245721A1, “DOUBLE SIDED CHIMERIC ANTIGEN RECEPTOR (CAR) ENGINEERED CELL MEMBRANE BASED DRUG DELIVERY SYSTEMS” (BOARD OF REGENTS, THE UNIVERSITY OF TEXAS SYSTEM, priority 2021, published 2024).
pIC50: −log10 of the molar value. Like-named read-outs stand apart in the source and are kept apart here.

Assays:
A549 cells = assay: In vitro cytotoxicity (MTT) on A549; format: cell-based; conditions: Homo sapiens, afatinib: 48 hour exposure, read-out: IC50 (half maximal inhibitory concentration)
Protocol: (§1) A549, MDA-MB-231 and SKOV-3 cells were seeded (5×10^3 cells/well) in 96-well plates and incubated overnight. Free Afatinib, Afatinib loaded PLGA NPs, anti HER-2 PLGA NPs, Jurkat-T-MNPs, and CAR-T-MNPs were added to the seeded cells (n=4). Alternatively, free cisplatin, cisplatin loaded PLGA NPs, Jurkat-T-MNPs, and CAR-T-MNPs were added to the seeded cells (n=4) at a cisplatin concentration of 7 μM (A549) & 3.5 μM (SKOV-3). After incubation for 48 hours, the absorbance at 490 nm was measured using UV-VIS Spectrophotometer (Tecan) after incubating with MTT reagent (Promega) for one hour. Cell viabilities were calculated via normalizing to the control group (cells exposed to complete media, 100% viability).

MDA-MB-231 cells = assay: In vitro cytotoxicity (MTT) on MDA-MB-231; format: cell-based; conditions: Homo sapiens; MDA-MB-231, 48 hour exposure
Protocol: as §1

SKOV-3 cells = assay: In vitro cytotoxicity (MTT) on SKOV-3; format: cell-based; conditions: read-out: IC50 (half maximal inhibitory concentration)
Protocol: as §1

[1] = tested on: subcutaneous A549 tumor implanted in nude mice; assay: In vivo therapeutic efficiency (tumor delay, survival, weight, H&E histology); conditions: 2-week post treatment, single IV dose, cisplatin 3 mg/kg
Protocol: Nude mice (NU/J) aged 5-6 weeks were purchased from Jacksons Laboratory. Briefly, 2×10^6 A549 cells in 200 μL of Matrigel (Corning, NY) were injected subcutaneously in athymic nude mice. Tumor volumes were checked at regular intervals of 3 days and treatment started when the volume reached ˜300 mm3. Tumor volumes were measured using a standard Vernier Calipers. All procedures involving experimental animals were performed in accordance with the protocols approved by the University of Texas at Arlington Institutional Animal Care and Use Committee.
Xenograft tumors as described above were used to evaluate the therapeutic efficiency of CAR-T-MNPs. After the tumor reached ˜300 mm3, the mice were randomly distributed into 4 groups (n=3) for different treatment groups. Prior to treatment, all mice were ear-tagged, the initial tumor volumes were measured by a caliper, and the body weights were recorded. The treatment groups received a single tail-vein IV administration of either of 200 μL of saline (control), free drug, Jurkat-T-MNPs or CAR-T-MNPs. Tumor volume was measured every 2-3 days via a caliper. Tumor volumes were calculated by measuring the tumor perpendicular diameters with a caliper and calculated using the formula V=½×a×b2, where a and b are the longest diameter and its longest perpendicular diameter, respectively. […]

CN(C)C/C=C/C(=O)Nc1cc2c(Nc3ccc(F)c(Cl)c3)ncnc2cc1O[C@H]1CCOC1 [afatinib, Afatinib]
pIC50 (A549 cells): ~5.37
pIC50 (MDA-MB-231 cells): ~5.43
pIC50 (SKOV-3 cells; Homo sapiens, SK-OV-3, afatinib: 48 hour exposure): ~5.85

N.N.[Cl][Pt][Cl] [cisplatin, Cisplatin]
tumor volume [1]: increasing trend
pIC50 (SKOV-3 cells; afatinib: 48 hour exposure): 5.40
